The data set relates to Mus musculus. The data set is described as follows: Effect on social interaction in Oprm1+/+ mouse model of autism spectrum disorders assessed as time spent in nose contacts at 10 mg/kg, ip pre-treated before open-field test for 10 mins. In kind it is ADME, organism-based. The settings on record: in vivo.

Take `Cc1cc(C(=O)N2Cc3cnn(C)c3Nc3ccccc32)ccc1CNC(=O)N1CCC[C@H]1C(=S)N(C)C`: the Activity entry is given as “Toxic”.

Values taken from ChEMBL document CHEMBL4196200 (J Med Chem, 2018).
